Laboratory results: the supplement of paper PMC11061612

Key:
Carboplatin = compound: C1CC(C1)(C(=O)[O-])C(=O)[O-].N.N.[Pt+2] [Carboplatin]; conditions: max 10 µM
Outline: (§1)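 In 1536-well plates, cancer cell lines in 7.5 μl DMEM/F12 or RPMI with 10% FBS spent 24 hours at 37°C and 5% CO2 and were then dosed for 72 hours with final DMSO typically 0.2%. Viability was read by CellTiter-Glo 2.0 luminescence and scaled between blank-well and DMSO-well means. The single-agent IC50 was fitted from dose responses using a logistic curve in a non-linear mixed effects model, and that logistic curve had two parameters.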

AZD5363 = compound: C1CN(CCC1(C(=O)N[C@@H](CCO)C2=CC=C(C=C2)Cl)N)C3=NC=NC4=C3C=CN4 [AZD5363]; conditions: max 10 µM
Outline: as §1

AZD1775 = compound: C=CCn1c(=O)c2cnc(Nc3ccc(N4CCN(C)CC4)cc3)nc2n1-c1cccc(C(C)(C)O)n1 [AZD1775]; conditions: max 3 µM
Outline: as §1

Trametinib = compound: CC(=O)Nc1cccc(-n2c(=O)n(C3CC3)c(=O)c3c(Nc4ccc(I)cc4F)n(C)c(=O)c(C)c32)c1 [Trametinib]; conditions: max 1 µM
Outline: as §1

Paclitaxel = compound: CC(=O)O[C@H]1C(=O)[C@@]2(C)[C@H]([C@H](OC(=O)c3ccccc3)[C@]3(O)C[C@H](OC(=O)[C@H](O)[C@@H](NC(=O)c4ccccc4)c4ccccc4)C(C)=C1C3(C)C)[C@]1(OC(C)=O)CO[C@@H]1C[C@@H]2O [Paclitaxel]; conditions: max 3 µM
Outline: as §1

Palbociclib = compound: CC(=O)c1c(C)c2cnc(Nc3ccc(N4CCNCC4)cn3)nc2n(C2CCCC2)c1=O [Palbociclib]; conditions: max 10 µM
Outline: as §1

AZD1390 = compound: CC(C)n1c(=O)n(C)c2cnc3cc(F)c(-c4ccc(OCCCN5CCCCC5)nc4)cc3c21 [AZD1390]; conditions: max 0.3 µM
Outline: as §1

Venetoclax = compound: CC1(C)CCC(CN2CCN(c3ccc(C(=O)NS(=O)(=O)c4ccc(NCC5CCOCC5)c([N+](=O)[O-])c4)c(Oc4cnc5[nH]ccc5c4)c3)CC2)=C(c2ccc(Cl)cc2)C1 [Venetoclax]; conditions: max 1 µM
Outline: as §1

Dasatinib = compound: CC1=C(C(=CC=C1)Cl)NC(=O)C2=CN=C(S2)NC3=CC(=NC(=N3)C)N4CCN(CC4)CCO [Dasatinib]; conditions: max 2 µM
Outline: as §1

SG3199 = compound: CC1=CN2[C@@H](C1)C=NC3=CC(=C(C=C3C2=O)OC)OCCCCCOC4=C(C=C5C(=C4)N=C[C@@H]6CC(=CN6C5=O)C)OC [SG3199]; conditions: max 0.001 µM
Outline: as §1

AZD2811 = compound: CCN(CCO)CCCOc1ccc2c(Nc3cc(CC(=O)Nc4cccc(F)c4)[nH]n3)ncnc2c1 [AZD2811]; conditions: max 1 µM
Outline: as §1

SN-38 = compound: CCc1c2c(nc3ccc(O)cc13)-c1cc3c(c(=O)n1C2)COC(=O)[C@]3(O)CC [SN-38]; conditions: max 0.3 µM
Outline: as §1

AZD0156 = compound: CN(C)CCCOc1ccc(-c2ccc3ncc4c(c3c2)n(C2CCOCC2)c(=O)n4C)cn1 [AZD0156]; conditions: max 3 µM
Outline: as §1

Alisertib = compound: COc1cc(Nc2ncc3c(n2)-c2ccc(Cl)cc2C(c2c(F)cccc2OC)=NC3)ccc1C(=O)O [Alisertib]; conditions: max 10 µM
Outline: as §1

Etoposide = compound: COc1cc([C@@H]2c3cc4c(cc3[C@@H](O[C@@H]3O[C@@H]5CO[C@@H](C)O[C@H]5[C@H](O)[C@H]3O)[C@H]3COC(=O)[C@H]23)OCO4)cc(OC)c1O [Etoposide]; conditions: max 10 µM
Outline: as §1

Gefitinib = compound: COc1cc2ncnc(Nc3ccc(F)c(Cl)c3)c2cc1OCCCN1CCOCC1 [Gefitinib]; conditions: max 10 µM
Outline: as §1

Prexasertib = compound: COc1cccc(OCCCN)c1-c1cc(Nc2cnc(C#N)cn2)n[nH]1 [Prexasertib]; conditions: max 1 µM
Outline: as §1

Doxorubicin = compound: COc1cccc2c1C(=O)c1c(O)c3c(c(O)c1C2=O)C[C@@](O)(C(=O)CO)C[C@@H]3O[C@H]1C[C@H](N)[C@H](O)[C@H](C)O1 [Doxorubicin]; conditions: max 1 µM
Outline: as §1

AZD5153 = compound: COc1nnc2ccc(N3CCC(c4ccc(OCCN5CCN(C)C(=O)[C@H]5C)cc4)CC3)nn12 [AZD5153]; conditions: max 1 µM
Outline: as §1

Lapatinib = compound: CS(=O)(=O)CCNCc1ccc(-c2ccc3ncnc(Nc4ccc(OCc5cccc(F)c5)c(Cl)c4)c3c2)o1 [Lapatinib]; conditions: max 10 µM
Outline: as §1

AZD8186 = compound: C[C@@H](Nc1cc(F)cc(F)c1)c1cc(C(=O)N(C)C)cc2c(=O)cc(N3CCOCC3)oc12 [AZD8186]
Outline: as §1

Crizotinib = compound: C[C@@H](Oc1cc(-c2cnn(C3CCNCC3)c2)cnc1N)c1c(Cl)ccc(F)c1Cl [Crizotinib]; conditions: max 10 µM
Outline: as §1

Savolitinib = compound: C[C@@H](c1ccc2nccn2c1)n1nnc2ncc(-c3cnn(C)c3)nc21 [Savolitinib]; conditions: max 1 µM
Outline: as §1

AZD6738 = compound: C[C@@H]1COCCN1C2=NC(=NC(=C2)C3(CC3)[S@](=N)(=O)C)C4=C5C=CNC5=NC=C4 [AZD6738]; conditions: max 10 µM
Outline: as §1

AZD5991 = compound: Cc1c2c(nn1C)CSCc1cc(n(C)n1)CSc1cc(c3ccccc3c1)OCCCc1c(C(=O)O)n(C)c3c-2c(Cl)ccc13 [AZD5991]; conditions: max 1 µM
Outline: as §1

AZD7648 = compound: Cc1cc2ncnn2cc1Nc1ncc2c(n1)n(C1CCOCC1)c(=O)n2C [AZD7648]; conditions: max 10 µM
Outline: as §1

Taselisib = compound: Cc1nc(-c2cn3c(n2)-c2ccc(-c4cnn(C(C)(C)C(N)=O)c4)cc2OCC3)n(C(C)C)n1 [Taselisib]; conditions: max 10 µM
Outline: as §1

Selumetinib = compound: Cn1cnc2c(F)c(Nc3ccc(Br)cc3Cl)c(C(=O)NOCCO)cc21 [Selumetinib]; conditions: max 10 µM
Outline: as §1

SRA737 = compound: N#Cc1cnc(Nc2cc(NC[C@H]3CNCCO3)c(C(F)(F)F)cn2)cn1 [SRA737]; conditions: max 10 µM
Outline: as §1

MK-2206 = compound: NC1(c2ccc(-c3nc4ccn5c(=O)[nH]nc5c4cc3-c3ccccc3)cc2)CCC1 [MK-2206]; conditions: max 10 µM
Outline: as §1

Gemcitabine = compound: Nc1ccn([C@@H]2O[C@H](CO)[C@@H](O)C2(F)F)c(=O)n1 [Gemcitabine]; conditions: max 0.3 µM
Outline: as §1

[1] = compound: O=C(Nc1ccc2[nH]nc(-c3ccncc3)c2c1)[C@@H]1CCN(CC(=O)N2CCN(c3ccc(-c4ncccn4)cc3)CC2)C1; conditions: max 5 µM
Outline: as §1

Olaparib = compound: O=C(c1cc(Cc2n[nH]c(=O)c3ccccc23)ccc1F)N1CCN(C(=O)C2CC2)CC1 [Olaparib]; conditions: max 10 µM
Outline: as §1

5-Fluorouracil = compound: O=c1[nH]cc(F)c(=O)[nH]1 [5-Fluorouracil]; conditions: max 20 µM
Outline: as §1

Capivasertib = compound: C1CN(CCC1(C(=O)N[C@@H](CCO)C2=CC=C(C=C2)Cl)N)C3=NC=NC4=C3C=CN4 [Capivasertib]; conditions: max 10 µM
Outline: as §1

AZD4320 = compound: CN(CC[C@H](CSC1=CC=CC=C1)NC2=C(C=C(C=C2)S(=O)(=O)NC(=O)C3=CC=C(C=C3)N4CCC(CC4)[C@H](C5=CC=CC=C5C6=CC=C(C=C6)Cl)O)S(=O)(=O)C(F)(F)F)CCO [AZD4320]; conditions: max 1 µM
Outline: as §1

Cell Line	IC50, cell viability 72 h (Carboplatin)	IC50, cell viability 72 h (AZD5363)	IC50, cell viability 72 h (AZD1775)	IC50, cell viability 72 h (Trametinib)	IC50, cell viability 72 h (Paclitaxel)	IC50, cell viability 72 h (Palbociclib)	IC50, cell viability 72 h (AZD1390)	IC50, cell viability 72 h (Venetoclax)	IC50, cell viability 72 h (Dasatinib)	IC50, cell viability 72 h (SG3199)	IC50, cell viability 72 h (AZD2811)	IC50, cell viability 72 h (SN-38)	IC50, cell viability 72 h (AZD0156)	IC50, cell viability 72 h (Alisertib)	IC50, cell viability 72 h (Etoposide)	IC50, cell viability 72 h (Gefitinib)	IC50, cell viability 72 h (Prexasertib)	IC50, cell viability 72 h (Doxorubicin)	IC50, cell viability 72 h (AZD5153)	IC50, cell viability 72 h (Lapatinib)	IC50, cell viability 72 h (AZD8186; max 10 µM)	IC50, cell viability 72 h (Crizotinib)	IC50, cell viability 72 h (Savolitinib)	IC50, cell viability 72 h (AZD6738)	IC50, cell viability 72 h (AZD5991)	IC50, cell viability 72 h (AZD7648)	IC50, cell viability 72 h (Taselisib)	IC50, cell viability 72 h (Selumetinib)	IC50, cell viability 72 h (SRA737)	IC50, cell viability 72 h (MK-2206)	IC50, cell viability 72 h (Gemcitabine)	IC50, cell viability 72 h [1]	IC50, cell viability 72 h (Olaparib)	IC50, cell viability 72 h (5-Fluorouracil)	IC50, cell viability 72 h (Capivasertib)	IC50, cell viability 72 h (AZD4320)	IC50, cell viability 72 h (AZD8186; max 3 µM)
LS-123 (Colorectal Carcinoma)	> 10 µM	> 10 µM	2920 nM	395 nM	1210 nM	> 10 µM	> 300 nM	> 1000 nM	557 nM	> 1 nM	> 1000 nM	> 300 nM	> 3000 nM	> 10 µM	> 10 µM	> 10 µM	96.4 nM	611 nM	> 1000 nM	> 10 µM	> 10000 nM	> 10 µM	> 1000 nM	> 10 µM	> 1000 nM	> 10 µM	1.94 µM	> 10 µM	> 10 µM	> 10 µM	> 300 nM	2730 nM	> 10 µM	> 20 µM			
NCI-H1568 (Lung Adenocarcinoma)			1760 nM	> 1000 nM		> 10 µM	> 300 nM	> 1000 nM	> 2000 nM	> 1 nM	> 1000 nM	297 nM	> 3000 nM	> 10 µM		> 10 µM	424 nM	> 1000 nM	> 1000 nM	> 10 µM		> 10 µM	> 1000 nM	> 10 µM	> 1000 nM	> 10 µM	> 10 µM	> 10 µM					> 10 µM		> 10 µM	> 1000 nM	> 3000 nM
NCI-H2052 (Mesothelioma)			> 3000 nM	> 1000 nM		> 10 µM	> 300 nM	> 1000 nM	1510 nM	> 1 nM	> 1000 nM	38.5 nM	> 3000 nM	> 10 µM		> 10 µM	574 nM	> 1000 nM	> 1000 nM	> 10 µM		> 10 µM	> 1000 nM	> 10 µM	> 1000 nM	> 10 µM	3.67 µM	> 10 µM		> 10 µM			> 10 µM		> 10 µM	> 1000 nM	> 3000 nM
NCI-H2722 (Mesothelioma)			> 3000 nM	> 1000 nM		> 10 µM	> 300 nM	> 1000 nM	> 2000 nM	> 1 nM	> 1000 nM	> 300 nM	> 3000 nM	> 10 µM		> 10 µM	> 1000 nM	> 1000 nM	> 1000 nM	> 10 µM		> 10 µM	> 1000 nM	> 10 µM	> 1000 nM	> 10 µM	> 10 µM	> 10 µM					> 10 µM		> 10 µM	> 1000 nM	> 3000 nM
NUGC-4 (Gastric Carcinoma)			2530 nM	> 1000 nM		> 10 µM	> 300 nM	> 1000 nM	> 2000 nM	> 1 nM	> 1000 nM	> 300 nM	> 3000 nM	> 10 µM		> 10 µM	948 nM	> 1000 nM	582 nM	> 10 µM		> 10 µM	> 1000 nM	> 10 µM	> 1000 nM	> 10 µM	> 10 µM	5.68 µM					> 10 µM		> 10 µM	> 1000 nM	> 3000 nM
OV-56 (Ovarian Carcinoma)			> 3000 nM	> 1000 nM		> 10 µM	> 300 nM	> 1000 nM	> 2000 nM	> 1 nM	> 1000 nM	25 nM	> 3000 nM	> 10 µM		> 10 µM	42.2 nM	> 1000 nM	> 1000 nM	> 10 µM		> 10 µM	> 1000 nM	> 10 µM	> 1000 nM	> 10 µM	> 10 µM	> 10 µM					> 10 µM		> 10 µM	> 1000 nM	> 3000 nM
SW1573 (Lung Adenocarcinoma)			> 3000 nM	> 1000 nM		> 10 µM	> 300 nM	> 1000 nM	> 2000 nM	> 1 nM	> 1000 nM	52.2 nM	> 3000 nM	> 10 µM		> 10 µM	> 1000 nM	> 1000 nM	> 1000 nM	> 10 µM		> 10 µM	> 1000 nM	> 10 µM	> 1000 nM	> 10 µM	> 10 µM	> 10 µM					> 10 µM		> 10 µM	> 1000 nM	> 3000 nM
